These results are taken from ChEMBL document CHEMBL3822439, “Discovery of a novel 6,7-disubstituted-4-(2-fluorophenoxy)quinolines bearing 1,2,3-triazole-4-carboxamide moiety as potent c-Met kinase inhibitors” (Eur J Med Chem, 2016).

A word on the IC50: it is the midpoint of a concentration-inhibition curve. A lower IC50 goes with inhibition by little substance.

For test [1], the target named is Mast/stem cell growth factor receptor Kit (Homo sapiens, UniProt P10721). Put plainly: Inhibition of c-kit (unknown origin) using poly (Glu, Tyr) 4:1 as substrate incubated for 30 mins by HTRF assay. (TR-FRET usually uses a lanthanide donor and a delayed reading to cut background.)
Chain of Mast/stem cell growth factor receptor Kit (P10721 whole entry): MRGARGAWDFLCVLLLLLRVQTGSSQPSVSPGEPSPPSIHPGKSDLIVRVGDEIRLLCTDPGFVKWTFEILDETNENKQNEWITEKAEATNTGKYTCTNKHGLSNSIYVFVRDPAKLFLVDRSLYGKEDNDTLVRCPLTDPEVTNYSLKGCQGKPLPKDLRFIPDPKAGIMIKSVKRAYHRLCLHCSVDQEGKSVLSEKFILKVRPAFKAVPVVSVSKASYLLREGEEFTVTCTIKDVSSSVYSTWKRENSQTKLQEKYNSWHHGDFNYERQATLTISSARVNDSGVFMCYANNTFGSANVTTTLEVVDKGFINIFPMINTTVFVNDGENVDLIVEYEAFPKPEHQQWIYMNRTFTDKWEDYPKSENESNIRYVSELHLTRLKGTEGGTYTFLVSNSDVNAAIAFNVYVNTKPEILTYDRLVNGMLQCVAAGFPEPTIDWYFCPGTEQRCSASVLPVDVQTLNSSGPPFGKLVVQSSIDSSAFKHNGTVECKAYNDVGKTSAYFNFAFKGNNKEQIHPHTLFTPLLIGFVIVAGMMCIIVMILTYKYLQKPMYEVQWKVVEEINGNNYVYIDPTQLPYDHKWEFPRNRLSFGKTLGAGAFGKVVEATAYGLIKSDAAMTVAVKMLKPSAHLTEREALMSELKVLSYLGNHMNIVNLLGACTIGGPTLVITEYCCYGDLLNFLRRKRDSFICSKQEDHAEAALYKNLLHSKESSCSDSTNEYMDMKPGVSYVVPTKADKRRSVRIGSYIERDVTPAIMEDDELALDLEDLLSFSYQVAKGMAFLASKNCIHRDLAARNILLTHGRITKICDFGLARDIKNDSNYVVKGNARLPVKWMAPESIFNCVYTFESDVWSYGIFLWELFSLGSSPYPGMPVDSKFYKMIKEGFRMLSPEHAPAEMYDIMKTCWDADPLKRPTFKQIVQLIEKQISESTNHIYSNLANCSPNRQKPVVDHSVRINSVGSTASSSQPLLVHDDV
The target of test [2] is Hepatocyte growth factor receptor (Homo sapiens, UniProt P08581). Put plainly: Inhibition of c-Met (unknown origin) using poly (Glu, Tyr) 4:1 as substrate incubated for 30 mins by HTRF assay.
Chain of Hepatocyte growth factor receptor (P08581 whole entry): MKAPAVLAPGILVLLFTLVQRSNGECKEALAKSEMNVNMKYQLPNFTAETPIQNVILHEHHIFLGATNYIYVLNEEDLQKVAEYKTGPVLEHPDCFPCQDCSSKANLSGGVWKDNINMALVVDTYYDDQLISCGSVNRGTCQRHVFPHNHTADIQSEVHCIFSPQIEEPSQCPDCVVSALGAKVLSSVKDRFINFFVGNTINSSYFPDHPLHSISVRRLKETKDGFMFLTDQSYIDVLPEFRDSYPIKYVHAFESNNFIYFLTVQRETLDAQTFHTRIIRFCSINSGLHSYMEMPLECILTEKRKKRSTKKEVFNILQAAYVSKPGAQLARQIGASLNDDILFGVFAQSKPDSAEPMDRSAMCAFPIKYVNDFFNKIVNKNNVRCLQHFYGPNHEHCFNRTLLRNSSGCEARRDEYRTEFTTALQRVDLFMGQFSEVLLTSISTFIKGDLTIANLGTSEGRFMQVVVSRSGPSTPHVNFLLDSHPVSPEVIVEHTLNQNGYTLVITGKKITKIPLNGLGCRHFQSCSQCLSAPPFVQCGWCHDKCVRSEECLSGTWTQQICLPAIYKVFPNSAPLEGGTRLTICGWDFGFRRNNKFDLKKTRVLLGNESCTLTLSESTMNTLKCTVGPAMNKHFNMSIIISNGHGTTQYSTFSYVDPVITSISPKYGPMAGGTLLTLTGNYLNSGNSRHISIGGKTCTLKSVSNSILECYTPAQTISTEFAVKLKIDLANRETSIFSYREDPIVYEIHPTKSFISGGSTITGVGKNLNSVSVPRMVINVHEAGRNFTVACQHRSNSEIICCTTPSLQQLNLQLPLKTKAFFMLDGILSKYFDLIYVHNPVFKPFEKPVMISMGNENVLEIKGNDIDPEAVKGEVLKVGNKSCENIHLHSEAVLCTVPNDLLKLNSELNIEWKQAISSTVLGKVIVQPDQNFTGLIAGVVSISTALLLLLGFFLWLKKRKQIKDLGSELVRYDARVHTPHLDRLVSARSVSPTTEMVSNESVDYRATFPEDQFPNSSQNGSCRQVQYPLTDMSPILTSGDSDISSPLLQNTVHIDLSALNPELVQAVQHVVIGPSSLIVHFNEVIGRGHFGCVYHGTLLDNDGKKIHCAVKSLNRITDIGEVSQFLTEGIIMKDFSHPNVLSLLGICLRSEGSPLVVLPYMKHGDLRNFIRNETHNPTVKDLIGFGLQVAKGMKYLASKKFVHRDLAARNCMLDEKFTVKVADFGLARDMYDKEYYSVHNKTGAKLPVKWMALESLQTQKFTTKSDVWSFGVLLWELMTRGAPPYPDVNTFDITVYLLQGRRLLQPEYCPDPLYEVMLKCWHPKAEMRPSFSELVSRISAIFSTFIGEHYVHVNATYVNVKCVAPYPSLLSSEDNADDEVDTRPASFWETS
Test [3] deals with Epidermal growth factor receptor (Homo sapiens, UniProt P00533). Put plainly: Inhibition of EGFR (unknown origin) using poly (Glu, Tyr) 4:1 as substrate incubated for 30 mins by HTRF assay.
For test [4], the system named is HT-29. Nature of the test: Cytotoxicity against human HT-29 cells measured after 72 hrs by MTT assay. To be noted: HT-29, 72 h. (In general: Tetrazolium dyes change colour on reduction, which living cells bring about.)
Test [5] concerns A549. Nature of the test: Cytotoxicity against human A549 cells measured after 72 hrs by MTT assay. Type of test: functional, cell-based. Conditions: A549, 72 h.
Test [6] has as its target T1, Receptor-type tyrosine-protein kinase FLT3 (Homo sapiens, UniProt P36888).
T1 sequence (P36888 whole entry): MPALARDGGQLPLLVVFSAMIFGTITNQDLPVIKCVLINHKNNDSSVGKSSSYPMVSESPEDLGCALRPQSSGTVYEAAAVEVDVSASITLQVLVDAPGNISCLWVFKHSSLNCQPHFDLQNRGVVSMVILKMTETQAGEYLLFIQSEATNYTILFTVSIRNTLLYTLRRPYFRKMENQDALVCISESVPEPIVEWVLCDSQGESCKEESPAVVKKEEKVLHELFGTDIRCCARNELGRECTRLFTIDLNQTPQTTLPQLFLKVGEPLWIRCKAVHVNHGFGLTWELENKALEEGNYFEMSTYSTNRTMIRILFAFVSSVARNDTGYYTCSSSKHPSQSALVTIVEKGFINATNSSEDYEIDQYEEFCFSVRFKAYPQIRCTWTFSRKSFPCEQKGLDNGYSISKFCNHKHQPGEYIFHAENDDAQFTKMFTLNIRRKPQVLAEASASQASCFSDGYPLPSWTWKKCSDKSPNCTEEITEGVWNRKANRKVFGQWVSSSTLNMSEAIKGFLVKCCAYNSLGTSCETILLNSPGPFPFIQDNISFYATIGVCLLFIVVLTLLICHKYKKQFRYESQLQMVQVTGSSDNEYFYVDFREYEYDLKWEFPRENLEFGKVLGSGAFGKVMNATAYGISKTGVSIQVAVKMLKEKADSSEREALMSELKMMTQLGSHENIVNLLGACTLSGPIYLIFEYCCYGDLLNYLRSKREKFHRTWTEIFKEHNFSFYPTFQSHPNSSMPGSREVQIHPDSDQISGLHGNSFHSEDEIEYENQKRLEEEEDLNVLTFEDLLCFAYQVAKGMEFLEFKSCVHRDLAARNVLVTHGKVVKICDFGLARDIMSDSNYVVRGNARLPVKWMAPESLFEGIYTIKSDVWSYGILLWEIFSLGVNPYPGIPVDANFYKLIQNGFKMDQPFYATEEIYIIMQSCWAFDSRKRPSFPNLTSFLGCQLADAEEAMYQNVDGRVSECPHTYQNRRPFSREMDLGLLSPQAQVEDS
Nature of the test: Inhibition of FLT3 (unknown origin) using poly (Glu, Tyr) 4:1 as substrate incubated for 30 mins by HTRF assay.

For test [7], the target named is Macrophage-stimulating protein receptor (Homo sapiens, UniProt Q04912). Put plainly: Inhibition of Ron (unknown origin) using poly (Glu, Tyr) 4:1 as substrate incubated for 30 mins by HTRF assay.
Chain of Macrophage-stimulating protein receptor (Q04912 25-304 limits assumed): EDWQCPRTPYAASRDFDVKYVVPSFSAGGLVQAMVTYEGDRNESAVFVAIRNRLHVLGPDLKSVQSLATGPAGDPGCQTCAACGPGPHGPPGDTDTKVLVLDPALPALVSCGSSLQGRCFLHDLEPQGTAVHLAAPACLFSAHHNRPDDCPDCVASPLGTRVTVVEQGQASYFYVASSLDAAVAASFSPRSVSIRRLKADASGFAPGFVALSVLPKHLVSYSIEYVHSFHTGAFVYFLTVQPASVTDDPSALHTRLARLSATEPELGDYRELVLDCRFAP
Chain of Macrophage-stimulating protein receptor (Q04912 310-1400 limits assumed): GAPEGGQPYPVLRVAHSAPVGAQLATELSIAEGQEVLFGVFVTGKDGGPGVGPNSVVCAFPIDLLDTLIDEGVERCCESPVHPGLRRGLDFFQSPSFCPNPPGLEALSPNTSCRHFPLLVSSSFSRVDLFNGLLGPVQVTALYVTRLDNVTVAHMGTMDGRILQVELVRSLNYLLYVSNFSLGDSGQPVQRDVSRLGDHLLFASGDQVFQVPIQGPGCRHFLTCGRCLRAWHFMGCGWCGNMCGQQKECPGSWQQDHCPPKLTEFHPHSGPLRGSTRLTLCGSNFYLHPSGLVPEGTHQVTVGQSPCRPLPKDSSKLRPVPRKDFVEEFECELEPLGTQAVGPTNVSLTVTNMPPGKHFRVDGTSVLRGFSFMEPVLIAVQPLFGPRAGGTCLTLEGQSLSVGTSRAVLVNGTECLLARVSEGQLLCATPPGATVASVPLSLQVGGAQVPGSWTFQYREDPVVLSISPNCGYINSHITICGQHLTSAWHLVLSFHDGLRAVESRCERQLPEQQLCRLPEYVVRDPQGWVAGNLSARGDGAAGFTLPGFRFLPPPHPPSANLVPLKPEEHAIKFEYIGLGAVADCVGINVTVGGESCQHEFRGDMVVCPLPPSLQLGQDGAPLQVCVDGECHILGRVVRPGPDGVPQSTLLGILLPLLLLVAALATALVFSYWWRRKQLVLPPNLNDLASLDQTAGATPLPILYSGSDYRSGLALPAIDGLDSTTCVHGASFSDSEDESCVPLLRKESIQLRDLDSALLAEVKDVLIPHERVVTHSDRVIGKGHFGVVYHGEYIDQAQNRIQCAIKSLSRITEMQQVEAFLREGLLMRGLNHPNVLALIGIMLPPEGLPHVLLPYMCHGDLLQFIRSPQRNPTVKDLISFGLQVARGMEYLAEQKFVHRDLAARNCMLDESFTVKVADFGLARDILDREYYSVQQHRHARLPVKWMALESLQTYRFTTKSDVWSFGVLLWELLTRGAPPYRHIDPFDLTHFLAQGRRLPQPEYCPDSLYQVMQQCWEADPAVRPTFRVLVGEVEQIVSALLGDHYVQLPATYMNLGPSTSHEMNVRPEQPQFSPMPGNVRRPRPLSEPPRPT
Test [8] is described as follows: Cytotoxicity against human H460 cells measured after 72 hrs by MTT assay. To be noted: NCI-H460, 72 h.
Test [9] deals with A549. Put plainly: Potency index, ratio of foretinib IC50 to compound IC50 for human A549 cells. Format: functional.
Test [10] is described as follows: Cytotoxicity against human MKN45 cells measured after 72 hrs by MTT assay. Format: functional, cell-based. Conditions: MKN-45, 72 h.
A further test deals with MKN-45. Nature of the test: Potency index, ratio of foretinib IC50 to compound IC50 for human MKN45 cells. Type of test: functional.
Test [11] can be described thus: Potency index, ratio of foretinib IC50 to compound IC50 for human H460 cells. Type of test: functional.
Test [12] deals with Vascular endothelial growth factor receptor 2 (Homo sapiens, UniProt P35968). Nature of the test: Inhibition of VEGFR2 (unknown origin) using poly (Glu, Tyr) 4:1 as substrate incubated for 30 mins by HTRF assay.
Chain of Vascular endothelial growth factor receptor 2 (P35968 whole entry): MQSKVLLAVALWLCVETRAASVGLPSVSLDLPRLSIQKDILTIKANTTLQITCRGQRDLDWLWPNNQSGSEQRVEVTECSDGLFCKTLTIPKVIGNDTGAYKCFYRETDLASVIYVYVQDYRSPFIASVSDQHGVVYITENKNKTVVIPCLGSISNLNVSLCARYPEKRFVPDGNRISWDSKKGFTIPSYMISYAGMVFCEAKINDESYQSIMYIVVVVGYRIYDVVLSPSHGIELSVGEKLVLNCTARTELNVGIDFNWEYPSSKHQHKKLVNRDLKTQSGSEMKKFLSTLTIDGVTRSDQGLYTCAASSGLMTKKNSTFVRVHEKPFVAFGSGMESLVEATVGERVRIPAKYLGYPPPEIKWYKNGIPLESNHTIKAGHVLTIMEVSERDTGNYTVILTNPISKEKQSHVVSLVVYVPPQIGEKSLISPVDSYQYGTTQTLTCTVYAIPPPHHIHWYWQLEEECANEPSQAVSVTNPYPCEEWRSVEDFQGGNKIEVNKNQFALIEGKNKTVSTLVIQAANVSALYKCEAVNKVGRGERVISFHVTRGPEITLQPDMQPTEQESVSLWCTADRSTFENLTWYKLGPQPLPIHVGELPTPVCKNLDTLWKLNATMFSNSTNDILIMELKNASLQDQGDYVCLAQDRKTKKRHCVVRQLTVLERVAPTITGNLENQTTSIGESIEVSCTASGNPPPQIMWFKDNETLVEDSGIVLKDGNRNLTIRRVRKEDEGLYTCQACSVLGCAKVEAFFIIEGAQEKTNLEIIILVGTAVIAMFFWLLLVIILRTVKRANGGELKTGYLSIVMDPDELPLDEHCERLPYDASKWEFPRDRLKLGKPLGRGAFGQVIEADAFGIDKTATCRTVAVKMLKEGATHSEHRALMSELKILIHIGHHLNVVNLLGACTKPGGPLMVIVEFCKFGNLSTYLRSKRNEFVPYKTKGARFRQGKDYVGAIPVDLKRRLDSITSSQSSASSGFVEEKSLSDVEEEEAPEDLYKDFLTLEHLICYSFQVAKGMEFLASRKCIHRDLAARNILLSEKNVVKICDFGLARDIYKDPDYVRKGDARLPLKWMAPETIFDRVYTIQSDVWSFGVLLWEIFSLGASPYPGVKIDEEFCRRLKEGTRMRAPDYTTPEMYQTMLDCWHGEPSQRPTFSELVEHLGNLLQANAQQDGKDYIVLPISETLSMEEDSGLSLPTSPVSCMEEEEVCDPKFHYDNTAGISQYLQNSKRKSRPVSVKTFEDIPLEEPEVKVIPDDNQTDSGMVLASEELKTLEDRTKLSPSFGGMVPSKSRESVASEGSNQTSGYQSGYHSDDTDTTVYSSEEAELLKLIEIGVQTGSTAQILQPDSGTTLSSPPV
The subject of test [13] is HT-29. Nature of the test: Potency index, ratio of foretinib IC50 to compound IC50 for human HT-29 cells. Type of test: functional.

For the compound `COc1cc2c(Oc3ccc(NC(=O)c4cn(-c5ccccc5Cl)nn4)cc3F)ccnc2cc1OCCCN1CCCCC1`, the IC50 was determined as 9.36 nM in [1]; 2.27 nM in [2]; 529 nM in [3]; 100 nM in the test on HT-29 [4]; 70 nM in the test on A549 [5]; 8.91 nM in [6]. Moreover, the IC50 in test [7] turned out to be 346 nM; in [8], 180 nM; in [10] it was 30 nM; in [12], 96.7 nM. The “Ratio IC50” value in the test with A549 [9] was 1.6; in the test on MKN-45, 1.1; in [11], 1.2; in the test with HT-29 [13], 1.9.
